We go through 12 molecules from ChEMBL document CHEMBL1201862, “PubChem BioAssay data set” (2004).

Test systems include A549; ACHN; EKVX; HCT-15; HT-29; LOX IMVI; M14; Malme-3M; NCI-H23; RPMI-8226; RXF 393; SF-295; SK-MEL-2; SK-OV-3; SN12C; TK-10; A498; CAKI-1; SR.
Holding throughout (experiment): inhibition of tumour cell growth, NCI panel, 48 h

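Each compound was tested at five concentrations against cells in 96-well plates for 48 hours. The concentration for 50% growth inhibition is given as GI50.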 Active and inactive are the calls of the source. Cut-off read from the data, not from the text of the source: active = GI50 up to about 1.1 µM and inactive = higher. Where only a bound is given, the exact number is not on record here.

For the molecule `Cc1ccccc1NC(=O)c1cc2cc(/N=N/c3ccccc3C(=O)O)ccc2oc1=O`, the GI50 is 33.4 µM (inactive) in the assay on A549; 33.3 µM (inactive) in the assay with ACHN; 48.6 µM (inactive) in the assay on EKVX; 10.6 µM in the assay with HCT-15; 15.2 µM (inactive) with HT-29; 16.4 µM (inactive) in the assay on LOX IMVI. Besides, the GI50 is 16.7 µM (inactive) with M14; 6.75 µM (inactive) with Malme-3M; 3.11 µM (inactive) in the assay on NCI-H23; 15.9 µM (inactive) with RPMI-8226; 17.4 µM (inactive) in the assay on RXF 393; 18.5 µM (inactive) in the assay with SF-295. Besides, the GI50 was 22.8 µM (inactive) with SK-MEL-2, 28.2 µM (inactive) with SK-OV-3, 18.6 µM (inactive) with SN12C and 48.2 µM (inactive) in the assay on TK-10.
Regarding `CCCCOC(=O)NC(=O)c1cn(C2CCCCC2)c(=O)[nH]c1=O`, the GI50 is 17.1 µM (inactive) in the assay with A498; 38.5 µM (inactive) in the assay with A549; 32.2 µM (inactive) in the assay on ACHN; > 10 µM (inactive) with CAKI-1; > 100 µM (inactive) with EKVX; more than 100 µM with HCT-15. Also, the GI50 was 59.4 µM (inactive) in the assay with HT-29; 55.2 µM (inactive) in the assay with LOX IMVI; 50.7 µM (inactive) with M14; 31 µM (inactive) in the assay with Malme-3M; 33 µM (inactive) in the assay with NCI-H23; 60.8 µM (inactive) in the assay with RPMI-8226. Also, the GI50 in the assay with SF-295 was 54.3 µM (inactive); with SK-MEL-2, 38 µM (inactive); in the assay with SK-OV-3, 20.9 µM (inactive); in the assay with SN12C it was > 100 µM (inactive); in the assay on TK-10, 46.9 µM (inactive).
Consider `CCc1cccc(C)c1NC(=O)CC1C(=O)Nc2ccccc2[S+]1[O-]` (stereo not given), for which the GI50 was 39.1 µM (inactive) in the assay with A549; 71.6 µM (inactive) in the assay with ACHN; 53.6 µM (inactive) in the assay with CAKI-1; 35.6 µM in the assay with HCT-15; 33.4 µM (inactive) with HT-29; 44.5 µM (inactive) with LOX IMVI. For the same molecule, the GI50 in the assay on M14 is 31.2 µM (inactive); in the assay on Malme-3M, 28.5 µM (inactive); in the assay with NCI-H23, 31.3 µM (inactive); with RPMI-8226, 33 µM (inactive); in the assay on SF-295, 32.1 µM (inactive); with SK-MEL-2 it was 43.5 µM (inactive). Also, the GI50 is 50 µM (inactive) in the assay on SN12C, 34 µM (inactive) in the assay with SR and > 100 µM (inactive) in the assay on TK-10.
Consider `CC1=C(C(=O)CC(=O)C(=O)NC2C3CC4CC(C3)CC2C4)Sc2ccccc2N1` (stereo not given), for which the GI50 in the assay on A498 was > 100 µM (inactive); in the assay with A549, > 100 µM (inactive); in the assay with ACHN, > 100 µM (inactive); with CAKI-1 it was 99.1 µM (inactive); with EKVX it was > 100 µM (inactive); in the assay on HCT-15, more than 71.4 µM. The GI50 in the assay with HT-29 is > 100 µM (inactive); with LOX IMVI, > 100 µM (inactive); in the assay on M14 it was > 100 µM (inactive); with Malme-3M, > 100 µM (inactive); in the assay with NCI-H23, > 100 µM (inactive); in the assay on RPMI-8226, 74.6 µM (inactive). The GI50 with RXF 393 was > 100 µM (inactive); in the assay on SF-295 it was > 100 µM (inactive); in the assay on SK-MEL-2 it was > 100 µM (inactive); in the assay with SK-OV-3, > 31.6 µM (inactive); in the assay with SN12C, > 100 µM (inactive); in the assay with TK-10, > 100 µM (inactive).
For the molecule `COc1ccc(OC)c(NCC(=O)Nn2cnc3ccc(S(=O)(=O)Nc4cc(OC)ccc4OC)cc3c2=O)c1`, the GI50 in the assay on A549 is 90.8 µM (inactive); in the assay with ACHN, > 100 µM (inactive); in the assay with CAKI-1, > 100 µM (inactive); with EKVX it was > 100 µM (inactive); with HCT-15 it was more than 100 µM; in the assay on HT-29, 45.5 µM (inactive). Further, the GI50 was 41.1 µM (inactive) with LOX IMVI; > 100 µM (inactive) with M14; > 100 µM (inactive) in the assay with Malme-3M; 66.7 µM (inactive) in the assay with NCI-H23; 70.3 µM (inactive) in the assay with SF-295; 35.4 µM (inactive) in the assay with SK-MEL-2. The GI50 in the assay on SK-OV-3 is > 100 µM (inactive); with SN12C it was > 100 µM (inactive); in the assay on SR it was 25.4 µM (inactive); with TK-10, > 100 µM (inactive).
Turning to `[O-][S+](CCc1ccccc1)Nc1ccccc1` (stereo not given), the GI50 in the assay with A549 was > 100 µM (inactive); in the assay on ACHN, > 100 µM (inactive); in the assay with CAKI-1 it was > 100 µM (inactive); with EKVX, > 100 µM (inactive); in the assay on HCT-15 it was more than 100 µM; in the assay on HT-29 it was > 100 µM (inactive). Moreover, the GI50 in the assay on LOX IMVI was > 100 µM (inactive); in the assay with M14 it was > 100 µM (inactive); in the assay on Malme-3M, > 100 µM (inactive); in the assay on NCI-H23 it was > 100 µM (inactive); in the assay on RPMI-8226 it was > 100 µM (inactive); in the assay on RXF 393 it was 55.5 µM (inactive). The GI50 in the assay with SF-295, with SN12C, in the assay on SR and in the assay with TK-10 was > 100 µM (inactive) in each case.
On to `Cc1nc2c(n1Cc1ccc(Cl)cc1)C(=O)c1ccccc1C2=O`, for which the GI50 is 17.4 µM (inactive) with A549; 27 µM (inactive) in the assay on ACHN; > 75 µM (inactive) with EKVX; 1.07 µM in the assay on HCT-15; 4.08 µM (inactive) in the assay with HT-29; 2.05 µM (inactive) in the assay with LOX IMVI. Also, the GI50 is > 75 µM (inactive) in the assay with M14; 35.6 µM (inactive) in the assay on Malme-3M; > 75 µM (inactive) with NCI-H23; 33.9 µM (inactive) in the assay with RXF 393; 11 µM (inactive) with SF-295; > 75 µM (inactive) with SK-MEL-2. In addition, the GI50 in the assay on SK-OV-3 was > 75 µM (inactive); in the assay on SN12C it was > 75 µM (inactive); in the assay on SR it was 1.32 µM (inactive); in the assay with TK-10, > 75 µM (inactive).
Consider `COC(=O)C(CCCN1C(=O)c2ccccc2C1=O)C(=O)OC`, for which the GI50 in the assay with A498 is > 100 µM (inactive); in the assay on A549 it was > 100 µM (inactive); in the assay with ACHN, > 100 µM (inactive); in the assay with CAKI-1 it was > 100 µM (inactive); in the assay with EKVX, > 100 µM (inactive); in the assay on HCT-15, more than 100 µM. Further, the GI50 in the assay on HT-29, in the assay on LOX IMVI, in the assay on M14, in the assay with Malme-3M, in the assay on NCI-H23 and in the assay on RXF 393 was > 100 µM (inactive) each time. For the same molecule, the GI50 with SF-295, in the assay with SK-MEL-2, with SK-OV-3, with SN12C and with TK-10 was > 100 µM (inactive) each time.
Regarding `CCN(CC)C(=O)CC12CCCCC1=Nc1ccccc12` (stereo not given), the GI50 in the assay on A498 is > 100 µM (inactive); in the assay with A549, > 100 µM (inactive); in the assay on ACHN, > 100 µM (inactive); in the assay on CAKI-1, > 100 µM (inactive); in the assay with EKVX, > 100 µM (inactive); in the assay on HCT-15, more than 100 µM. Further, the GI50 with HT-29, in the assay on LOX IMVI, in the assay with M14, in the assay with Malme-3M, with NCI-H23 and in the assay on RPMI-8226 was > 100 µM (inactive) in each case. The GI50 with SF-295, in the assay with SK-MEL-2, with SK-OV-3 and with TK-10 was > 100 µM (inactive) throughout.
As to `CC(C)=CC(=O)N(C)C1C2CN3CCC(O2)C13` (stereo not given), the GI50 is > 100 µM (inactive) in the assay on A498; > 100 µM (inactive) with A549; > 100 µM (inactive) in the assay with ACHN; > 100 µM (inactive) in the assay on CAKI-1; > 100 µM (inactive) in the assay on EKVX; more than 100 µM in the assay on HCT-15. For the same molecule, the GI50 in the assay with HT-29, in the assay with LOX IMVI, in the assay with M14, in the assay with Malme-3M, in the assay with NCI-H23 and in the assay on RXF 393 was > 100 µM (inactive) in each case. Further, the GI50 with SF-295, in the assay on SK-MEL-2, in the assay with SK-OV-3, with SN12C and in the assay with TK-10 was > 100 µM (inactive) each time.
For `O=C1C(c2ccc([N+](=O)[O-])cc2)=[N+]([O-])c2ccccc21`, the GI50 is 28 µM (inactive) with A549; 16.8 µM (inactive) in the assay on ACHN; 42.2 µM (inactive) in the assay on CAKI-1; 32.8 µM (inactive) with EKVX; 17.3 µM in the assay with HCT-15; 37.6 µM (inactive) in the assay on HT-29. Also, the GI50 in the assay with LOX IMVI is 21.1 µM (inactive); with M14, 28.7 µM (inactive); in the assay with Malme-3M, 36.6 µM (inactive); in the assay on NCI-H23, 23.3 µM (inactive); with RPMI-8226 it was 19 µM (inactive); with RXF 393 it was 23.3 µM (inactive). Further, the GI50 in the assay with SF-295 is 42.1 µM (inactive); in the assay with SK-MEL-2, > 100 µM (inactive); with SK-OV-3 it was 77.6 µM (inactive); in the assay with SN12C it was 24.5 µM (inactive); with SR, 23.7 µM (inactive); in the assay on TK-10, 37.1 µM (inactive).
With `COC(=O)[C@H]1[C@H]2C[C@@H]3c4[nH]c5cc(OC)ccc5c4CCN3C[C@H]2C[C@@H](OC(=O)c2cc(OC)c(OC)c(OC)c2)[C@@H]1OC` [RESERPINE], the GI50 with A549 is 18 µM (inactive); with ACHN it was 15 µM (inactive); in the assay on CAKI-1, 18.1 µM (inactive); with HCT-15, 20.3 µM; in the assay on HT-29, 12 µM (inactive); in the assay with M14, 15.4 µM (inactive). The GI50 with Malme-3M is 17.5 µM (inactive); with NCI-H23, 18.1 µM (inactive); with RPMI-8226, 6.9 µM (inactive); in the assay on SF-295, 17.7 µM (inactive); with SK-MEL-2, 19.3 µM (inactive); with SR it was 6.12 µM (inactive). Further, the GI50 in the assay with TK-10 was 17.5 µM (inactive).
